Converted amounts (≈) assume the structure as drawn. Square brackets hold non-standard residues; d marks the D form. Peptide text beside a SMILES is read from it. * marks the point of attachment. Palmitoyl = CCCCCCCCCCCCCCCC(=O)*; Dab = NCC[C@H](N)C(=O)O
Tests used:
[1] = system: Candida albicans ATCC 10231; type: cell-based; conditions: ATCC 10231, 18 h
From the text: (§1) Fmoc-Lys(Boc)-OH and the coupling reagents were purchased from GL Biochem (Shanghai, China). Palmitoyl Fmoc-amino acids: Fmoc-Lys(C16)-OH, Fmoc-Orn(C16)-OH, Fmoc-Dab(C16)-OH, and Fmoc-Dap(C16)-OH were acquired from Iris Biotech GmbH (Marktredwitz, Germany). The resin and solvents were purchases from Rapp Polymere (Tübingen, Germany), Merck (Darmstadt, Germany), and Avantor Performance Materials (Gliwice, Poland), respectively. The phospholipids, 1,2-dipalmitoyl-sn-glycero-3-phosphocholine (DPPC), 1,2-dipalmitoyl-sn-glycero-3-[phospho-rac-(1-glycerol)] (DPPG), 1-palmitoyl-2-oleoyl-glycero-3-phosphocholine (POPC) and 1-palmitoyl-2-oleoyl-sn-glycero-3-[phospho-rac-(1-glycerol)] (POPG), were purchased from Avanti Polar Lipids (Alabaster, AL, USA). LPS E. coli 055:B5 and phosphate buffered saline (PBS) were from Sigma-Aldrich (Steinheim, Germany). The Mueller Hinton broth was bought from BIOCORP (Warsaw, Poland) and the RPMI-1640 medium from Sigma-Aldrich (Steinheim, Germany). LIVE/DEAD™ BacLight™ Bacterial Viability Kit was obtained from Thermo Fisher Scientific (Waltham, MA, USA). Bacterial strains (Escherichia coli ATCC 25922, Pseudomonas aeruginosa ATCC 9027, Staphylococcus aureus ATCC 25923, Staphylococcus epidermidis ATCC 1922) and the fungal strain (Candida albicans ATCC 10231) were obtained from the Polish Collection of Microorganisms, Polish Academy of Science, Institute of Immunology and Experimental Therapy, Wroclaw, Poland.
(§2) Antimicrobial activity of the lipopeptides was determined according to the broth microdilution guidelines recommended by the Clinical and Laboratory Standards Institute (CLSI). Minimum inhibitory concentrations (MICs) were assumed as the lowest concentration of the peptide solution, at which the visible growth of microorganisms was inhibited. MIC values of lipopeptides against bacteria were evaluated in the Mueller–Hinton broth and against fungus in the RPMI-1640 medium. Initial inoculums of bacteria and fungus (with concentrations of 5 × 10^5 CFU/mL and 2 × 10^3 CFU/mL, respectively) were exposed to increasing concentrations of lipopeptides solutions over the range of 1–512 µg/mL. […] The 96-well plates filled with appropriate inoculums and the tested compounds were incubated for 18 h at 37 °C. Presented values are the mean of the results obtained in three independent experiments.

[2] = system: Escherichia coli ATCC 25922; type: cell-based; conditions: ATCC 25922, 18 h
From the text: as §1, §2

[3] = system: Pseudomonas aeruginosa ATCC 9027; type: cell-based; conditions: ATCC 9027, 18 h
From the text: as §1, §2

[4] = system: Staphylococcus aureus ATCC 25923; type: cell-based; conditions: ATCC 25923, 18 h
From the text: as §1, §2

[5] = system: Staphylococcus epidermidis ATCC 1922; type: cell-based; conditions: ATCC 1922, 18 h
From the text: as §1, §2

[6] = molecular target: POPG large unilamellar vesicles (LUVs); test: Isothermal titration calorimetry, binding to POPG; conditions: ITC, 298.15 K
Protocol: Isothermal titration calorimetry (ITC) experiments were carried out at 298.15 K using an AutoITC isothermal titration calorimeter (MicroCal Inc., GE Healthcare, Northampton, MA, USA) equipped with a 1.4491 mL sample cell and a reference cell. A typical ITC experiment involved a series of consecutive injections of 10.02 µL aliquots of the titrant (2 µL for the first injection only) into the reaction cell, at an interval of 4 min. The stirrer speed was constantly kept at 300 rpm to provide thorough mixing inside the reaction cell. Three types of ITC experiments were performed. These included lipopeptides binding to POPG, POPC, and LPS. The experiments were carried out by titration of 1.3 mM POPG or POPC LUVs into 0.05 or 0.1 mM lipopeptide solutions and the titration of 0.5 or 0.75 mM lipopeptide solution into 200 or 400 µg/mL LPS solution. The molecular mass of LPS was assumed to be 20,000 Da. To assess the heat of dilution, control experiments were performed by titration of an appropriate titrant into PBS. Final results were evaluated with an ITC module for ORIGIN 7 software, provided by MicroCal, Inc. (Northampton, MA, USA). The binding constant, stoichiometry, and enthalpy of interactions were directly determined from ITC experiment by fitting one of the built-in curve fitting models to the experimental data points. Changes in entropy (∆S°) and the Gibbs free energy (∆G°) were calculated from the following equation: ∆G^°=−RTln(55.5Ka)=∆H^°−T∆S^° where 55.5 is the molar concentration of water, R is the gas constant (1.986 cal·mol^−1·K^−1), and T is the absolute temperature.

E. coli = test: LIVE/DEAD SYTO9/PI bacterial viability staining, fluorescence microscopy; type: cell-based, Escherichia coli; conditions: 4, 8 and 16 µg/mL (1×, 2×, 4× MIC); at least two independent replicates
Protocol: Bacteria were inoculated in the Luria–Bertani medium and cultured with shaking at 37 °C up to the early exponential phase (A600 = 0.1). Then, 1.5 mL of the cultures were transferred to 5 mL Eppendorf tubes and treated with suitable peptides added at concentrations of 1×, 2×, or 4× MIC. For the negative control, bacteria were treated with a pure vehicle (water). Next, the cells were cultured for 1 or 2 h, as indicated. To obtain a positive control, at the end of the incubation, one portion of bacteria was collected and suspended in 200 µL of 70% ethanol for 5 min. After incubation, bacteria were collected by centrifugation (10 min, 3000× g) and washed twice with 0.85% NaCl. To determine membrane integrity, bacteria were stained with a LIVE/DEAD™ BacLight™ Bacterial Viability Kit (Thermo Fisher Scientific, Waltham, MA, USA) containing two dyes, i.e., a bacterial membrane permeable SYTO9 (green fluorescence) and an impermeable propidium iodide (red fluorescence) that stains only bacteria with damaged membrane. The staining was performed according to the manufacturer instructions. Then, bacteria were collected by centrifugation and washed twice with 0.85% NaCl. Bacteria pellets were suspended in 10 µL of 0.85% NaCl. Next, 3 µL of each suspension were spotted on agarose pads, covered with coverslips and immediately imaged using fluorescence microscope (Leica DMI4000B) with 100× objective. […]

[7] = 1.3 mM POPG LUVs into lipopeptide, PBS, single transition or first line of two binding events

| pKITC, POPG [6, 7] | pKITC, POPG ([6]; second line printed for the peptide (second binding event)) | SMILES | MIC, C. albicans [1] | MIC, E. coli [2] | MIC, P. aeruginosa [3] | MIC, S. aureus [4] | MIC, S. epidermidis [5] | membrane integrity of E. coli cells (SYTO9/PI staining) (E. coli) |
| --- | --- | --- | --- | --- | --- | --- | --- | --- |
| – | – | CCCCCCCCCCCCCCCC(=O)NCCCC[C@H](NC(=O)[C@H](CCCCN)NC(=O)[C@@H](N)CCCCN)C(=O)N[C@@H](CCCCN)C(=O)N[C@@H](CCCCN)C(N)=O [KK(KC16)KK-NH2] (H-KKK(Palmitoyl)KK-NH2) | 16 µg/mL (≈ 17.9 µM) | 4 µg/mL (≈ 4.46 µM) | 16 µg/mL (≈ 17.9 µM) | 8 µg/mL (≈ 8.93 µM) | 8 µg/mL (≈ 8.93 µM) | smaller number of red-stained cells than in the case of S. epidermidis |
| 8.09 ± 0.37 | 6.59 ± 0.26 | CCCCCCCCCCCCCCCC(=O)NCC[C@H](NC(=O)[C@@H](N)CCCCN)C(=O)N[C@@H](CCCCN)C(N)=O [K(DabC16)K-NH2] (H-Lys-[Dab](Palmitoyl)-Lys-NH2) | 16 µg/mL (≈ 26.1 µM) | 8 µg/mL (≈ 13.1 µM) | 16 µg/mL (≈ 26.1 µM) | 8 µg/mL (≈ 13.1 µM) | 8 µg/mL (≈ 13.1 µM) | – |
| 5.66 ± 0.11 | – | CCCCCCCCCCCCCCCC(=O)NCCCC[C@H](NC(=O)[C@@H](N)CCCCN)C(=O)N[C@@H](CCCCN)C(N)=O [K(KC16)K-NH2] | 8 µg/mL (≈ 12.5 µM) | 8 µg/mL (≈ 12.5 µM) | 16 µg/mL (≈ 25 µM) | 4 µg/mL (≈ 6.25 µM) | 8 µg/mL (≈ 12.5 µM) | – |

| SMILES | pKITC, POPG [6, 7] | pKITC, POPG ([6]; second line printed for the peptide (second binding event)) | MIC, C. albicans [1] | MIC, E. coli [2] | MIC, P. aeruginosa [3] | MIC, S. aureus [4] | MIC, S. epidermidis [5] | membrane integrity of E. coli cells (SYTO9/PI staining) (E. coli) |
| --- | --- | --- | --- | --- | --- | --- | --- | --- |
| CCCCCCCCCCCCCCCC(=O)NCCC[C@H](NC(=O)[C@@H](N)CCCCN)C(=O)N[C@@H](CCCCN)C(N)=O [K(OC16)K-NH2] | 5.79 ± 0.12 | – | 8 µg/mL (≈ 12.8 µM) | 8 µg/mL (≈ 12.8 µM) | 8 µg/mL (≈ 12.8 µM) | 8 µg/mL (≈ 12.8 µM) | 8 µg/mL (≈ 12.8 µM) | – |

From paper PMC7728077, “Double-Headed Cationic Lipopeptides: An Emerging Class of Antimicrobials” (International Journal of Molecular Sciences, 2020)
